Assay results published in patent US11363816B2, “4-amino-6-(heterocyclic)picolinates and 6-amino-2-(heterocyclic)pyramidine-4-carboxylates and their use as herbicides” (Dow AgroSciences LLC, priority 2017, dated 2022).

Experiments:
Assay type in all cases: in vivo
[1] = tested on: CHEAL=Chenopodium album L. (common lambsquarters); assay: Postemergence field trial, Hanley, Saskatchewan, Canada; conditions: 66DAAA
Experimental: (§1) Field trials were established in Canada (in Ellerslie, Alberta; Nisku, Alberta and Hanley, Saskatchewan) to evaluate the efficacy of Compound 5, Compound 6, and Compound 7. Trials were designed as randomized complete blocks with four replicates. Trials were established in spring wheat with natural weed population with plot sizes of 2-3 meters (m) by 8-10 m (width×length). The crops were grown using normal cultural practices for fertilization, seeding, and maintenance to ensure good growth of the crop.
(§2) All herbicide treatments were applied post-emergence with applications made to the crops at BBCH (Phenological development stages of a plant) 14 to 22 growth stage. Herbicides were applied with backpack or bicycle sprayers using carbon dioxide (CO2) as a propellant. The sprayers utilized flat fan air-induction spray nozzles calibrated to deliver a uniform spray pattern that provided thorough coverage of the foliage using a 100 L/ha spray volume. All treatments were applied with methylated seed oil (MSO) at 1.25% v/v. Phytotoxicity to the weeds was assessed visually at several intervals after application as percent overall control, compared to an untreated control plot. In general, four replicates were assessed for each treatment. All treatment results are an average of four replicates.
(§3) Compound 5, Compound 6 and Compound 7 were applied as emulsifiable concentrate (EC) formulations at 100 g ae/L EC, respectively.

[2] = tested on: POLCO=Polygonum convolvulus L. (wild buckwheat); assay: as above; conditions: 66DAAA
Experimental: as §1, §2, §3

[3] = tested on: KCHSC=Kochia scoparia (L.) Schrad. (Kochia); assay: as above; conditions: 66DAAA
Experimental: as §1, §2, §3

[4] = tested on: CHEAL=Chenopodium album L. (common lambsquarters); assay: Postemergence field trial, Nisku, Alberta, Canada
Experimental: as §1, §2, §3

[5] = tested on: STEME=Stellaria media (L.) Vill. (common chickweed); assay: Postemergence field trial, Nisku, Alberta, Canada
Experimental: as §1, §2, §3

[6] = tested on: CHEAL=Chenopodium album L. (common lambsquarters); assay: Postemergence field trial, Ellerslie, Alberta, Canada
Experimental: as §1, §2, §3

[7] = tested on: POLCO=Polygonum convolvulus L. (wild buckwheat); assay: as above
Experimental: as §1, §2, §3

[8] = tested on: STEME=Stellaria media (L.) Vill. (common chickweed); assay: as above
Experimental: as §1, §2, §3

[9] = tested on: PAPRH=Papaver rhoeas L. (common poppy); assay: Postemergence field trial, Granon, Spain (Table 5)
Experimental: (§4) Field trials were established in Spain (Banares and Granon) and Germany (Bielefeld) to evaluate the efficacy of Compound 5, Compound 6, and Compound 7. Trials were designed as randomized complete blocks with three to four replicates. Trials were established in winter wheat with natural weed population with plot sizes of 2-2.5 meters (m) by 6-8 m (width×length). The crops were grown using normal cultural practices for fertilization, seeding, and maintenance to ensure good growth of the crop. All herbicide treatments were applied post-emergence with applications made to the crops at the BBCH 21 to 23 growth stage. Herbicides were applied with backpack or bicycle sprayers using air as a propellant. The sprayers utilized flat fan air-induction spray nozzles calibrated to deliver a uniform spray pattern that provided thorough coverage of the foliage using a 200 L/ha spray volume. All treatments were applied with methylated seed oil (MSO) at 1.25% v/v. Phytotoxicity to the weeds was assessed visually at several intervals after application as percent overall control, compared to an untreated control plot. In general, three to four replicates were assessed for each treatment. All treatment results are an average of three or four replicates. Compound 5, Compound 6, and Compound 7 were applied as emulsifiable concentrate (EC) formulations at 100 g ae/L EC, respectively.

[10] = tested on: VERHE=Veronica hederifolia (ivyleaved speedwell); assay: Postemergence field trial, Granon, Spain (Table 5)
Experimental: as §4

[11] = tested on: weeds; assay: Herbicidal activity, overall conclusion from greenhouse and field results; conditions: summary of Tables 1 to 8
Description: These new chemical herbicides offer a broader spectrum of weed control, higher activity against weeds, and provide a way to address the management of weeds that developed resistance with respect to herbicides traditionally used to control them.

| Structure (SMILES) | Percent (%) Visual Control CHEAL 51DAAA ([4]; 10 g ae/ha) [%] | Percent (%) Visual Control CHEAL 51DAAA ([4]; 20 g ae/ha) [%] | Percent (%) Visual Control CHEAL 51DAAA ([4]; 40 g ae/ha) [%] | Percent (%) Visual Control STEME 28DAAA ([5]; 10 g ae/ha) [%] | Percent (%) Visual Control STEME 51DAAA ([5]; 10 g ae/ha) [%] | Percent (%) Visual Control STEME 28DAAA ([5]; 20 g ae/ha) [%] | Percent (%) Visual Control STEME 51DAAA ([5]; 20 g ae/ha) [%] | Percent (%) Visual Control STEME 28DAAA ([5]; 40 g ae/ha) [%] | Percent (%) Visual Control STEME 51DAAA ([5]; 40 g ae/ha) [%] | Percent (%) Visual Control CHEAL 51DAAA ([6]; 10 g ae/ha) [%] | Percent (%) Visual Control CHEAL 51DAAA ([6]; 20 g ae/ha) [%] | Percent (%) Visual Control POLCO 51DAAA ([7]; 10 g ae/ha) [%] | Percent (%) Visual Control POLCO 51DAAA ([7]; 20 g ae/ha) [%] | Percent (%) Visual Control STEME 51DAAA ([8]; 10 g ae/ha) [%] | Percent (%) Visual Control STEME 51DAAA ([8]; 20 g ae/ha) [%] | Percent (%) Visual Control PAPRH 84DAAA ([9]; 5 g ae/ha) [%] | Percent (%) Visual Control PAPRH 84DAAA ([9]; 10 g ae/ha) [%] | Percent (%) Visual Control PAPRH 84DAAA ([9]; 20 g ae/ha) [%] | Percent (%) Visual Control VERHE 34DAAA ([10]; 5 g ae/ha) [%] | Percent (%) Visual Control VERHE 34DAAA ([10]; 10 g ae/ha) [%] | further results |
| --- | --- | --- | --- | --- | --- | --- | --- | --- | --- | --- | --- | --- | --- | --- | --- | --- | --- | --- | --- | --- | --- |
| Nc1c(F)c(-c2ccc3cc[nH]c3c2F)nc(C(=O)OCc2ccccc2)c1Cl [Compound 7, benzyl 4-amino-3-chloro-5-fluoro-6-(7-fluoro-1H-indol-6-yl)picolinate, reference compound] | 98 | 98 | 98 | 76.7 | 76.3 | 76.7 | 80 | 99 | 85.8 | 94.8 | 98 | 79 | 92.8 | 73.3 | 80.8 | 59.3 | 68.3 | 80.3 | 51.7 | 58.3 | Percent (%) Visual Control CHEAL ([1]; 10 g ae/ha): 95.5%; Percent (%) Visual Control CHEAL ([1]; 20 g ae/ha): 98.5%; Percent (%) Visual Control CHEAL ([1]; 40 g ae/ha): 98.8%; Percent (%) Visual Control POLCO ([2]; 10 g ae/ha): 46.3%; Percent (%) Visual Control POLCO ([2]; 20 g ae/ha): 63.3%; Percent (%) Visual Control POLCO ([2]; 40 g ae/ha): 70%; Percent (%) Visual Control KCHSC ([3]; 10 g ae/ha): 45%; Percent (%) Visual Control KCHSC ([3]; 20 g ae/ha): 72%; Percent (%) Visual Control KCHSC ([3]; 40 g ae/ha): 78.8%; Percent (%) Visual Control CHEAL 51DAAA ([6]; 40 g ae/ha): 98%; Percent (%) Visual Control POLCO 51DAAA ([7]; 40 g ae/ha): 96.8%; Percent (%) Visual Control STEME 51DAAA ([8]; 40 g ae/ha): 83.3%; Percent (%) Visual Control VERHE 34DAAA ([10]; 20 g ae/ha): 79.3% |
| N#CCOC(=O)c1nc(-c2ccc3cc[nH]c3c2F)c(F)c(N)c1Cl [Compound 6, cyanomethyl 4-amino-3-chloro-5-fluoro-6-(7-fluoro-1H-indol-6-yl)picolinate] | 98 | 98 | 98 | 99 | 87.5 | 96 | 87.8 | 99 | 94.5 | 96.8 | 98 | 90.3 | 84.5 | 83.8 | 75.8 | 68.7 | 81 | 90 | 55 | 77.7 | herbicidal activity (overall conclusion) [11]: superior herbicidal activity over Compound 7; Percent (%) Visual Control CHEAL ([1]; 10 g ae/ha): 95%; Percent (%) Visual Control CHEAL ([1]; 20 g ae/ha): 98.3%; Percent (%) Visual Control CHEAL ([1]; 40 g ae/ha): 99%; Percent (%) Visual Control POLCO ([2]; 10 g ae/ha): 47.5%; Percent (%) Visual Control POLCO ([2]; 20 g ae/ha): 68.8%; Percent (%) Visual Control POLCO ([2]; 40 g ae/ha): 85.8%; Percent (%) Visual Control KCHSC ([3]; 10 g ae/ha): 62%; Percent (%) Visual Control KCHSC ([3]; 20 g ae/ha): 81.5%; Percent (%) Visual Control KCHSC ([3]; 40 g ae/ha): 92.5%; Percent (%) Visual Control CHEAL 51DAAA ([6]; 40 g ae/ha): 98%; Percent (%) Visual Control POLCO 51DAAA ([7]; 40 g ae/ha): 87%; Percent (%) Visual Control STEME 51DAAA ([8]; 40 g ae/ha): 90%; Percent (%) Visual Control VERHE 34DAAA ([10]; 20 g ae/ha): 86% |
| C#CCOC(=O)c1nc(-c2ccc3cc[nH]c3c2F)c(F)c(N)c1Cl [Compound 5, prop-2-yn-1-yl 4-amino-3-chloro-5-fluoro-6-(7-fluoro-1H-indol-6-yl)picolinate] | 98 | 96.8 | 97.3 | 88 | 88.3 | 96 | 92.5 | 99 | 93.8 | 98 | 98 | 76.3 | 91 | 66.3 | 83.3 | 66.7 | 78.3 | 90.7 | 60 | 77 | herbicidal activity (overall conclusion) [11]: superior herbicidal activity over Compound 7; Percent (%) Visual Control VERHE 34DAAA ([10]; 20 g ae/ha): 85% |
